# Results from patent publication US8431561B2 (priority 2004, dated 2013).
# Entries after “also recorded” stand apart in the source; their conditions may differ. Read-outs that look alike come from different tables or passages of the source.
# Key:
# [1] = test system: Malpighian tubules of D. melanogaster; type: cell-based
# [2] = test system: Malpighian tubules of D. melanogaster; details: in vivo
# [3] = test system: NO (nitrite and nitrate) in Malpighian tubule medium; type: cell-based, D. melanogaster
# [4] = test system: VASP phosphorylation in rat C6 glioma cells; type: cell-based
# [5] = test system: VASP phosphorylation in CS-54 vascular smooth muscle cells; type: cell-based, rat
# [6] = test system: NO (nitrite plus nitrate), C6 cells; type: cell-based, rat
# [7] = test system: NO (nitrite plus nitrate), CS-54 cells; type: cell-based, rat
# methionine synthase [8] = type: biochemical, baby hamster
# methylmalonyl-CoA mutase [9] = type: biochemical, baby hamster
# methionine synthase [10] = type: cell-based, baby hamster
# methylmalonyl-CoA mutase [11] = type: cell-based, baby hamster
# [12] = test system: Chinese hamster cells (cytochrome c oxidase); type: cell-based
# Chinese hamster cells = type: cell-based
# D. melanogaster [13] = details: in vivo
# D. melanogaster [14] = details: in vivo; remark: listed apart in the source
# [15] = test system: Malpighian tubules of D. melanogaster; type: cell-based; remark: listed apart in the source
# [16] = test system: BHK, CS-54, and C6 cells, human foreskin fibroblasts and HUVECs
# D. melanogaster [17] = details: in vivo; remark: listed apart in the source
# transcobalamin II = details: cited from earlier work
# haptocorrin = haptocorrin (Homo sapiens, UniProt P20061); details: cited from earlier work
# [18] = target: methionine synthase apoenzyme (Homo sapiens, UniProt Q99707); details: cited from earlier work
# [19] = test system: BHK, CS-54, and C6 cells, human foreskin fibroblasts and HUVECs; details: cited from earlier work
# [20] = rabbit, in vivo, cited from earlier work
# mouse leukemic cells = details: cited from earlier work
# [21] = test system: human monocytes and lymphocytes; details: cited from earlier work
# baby chicks = details: in vivo, cited from earlier work
# rats = details: rat, in vivo, sc; cited from earlier work
# [22] = pig, in vivo; cited from earlier work
# [23] = human, in vivo, iv; cited from earlier work
# [24] = target: apoenzyme of methylmalonyl-CoA mutase (Propionibacterium freudenreichii subsp. shermanii, UniProt P11653); details: cited from earlier work
# Sequence of apoenzyme of methylmalonyl-CoA mutase (P11652 2-638): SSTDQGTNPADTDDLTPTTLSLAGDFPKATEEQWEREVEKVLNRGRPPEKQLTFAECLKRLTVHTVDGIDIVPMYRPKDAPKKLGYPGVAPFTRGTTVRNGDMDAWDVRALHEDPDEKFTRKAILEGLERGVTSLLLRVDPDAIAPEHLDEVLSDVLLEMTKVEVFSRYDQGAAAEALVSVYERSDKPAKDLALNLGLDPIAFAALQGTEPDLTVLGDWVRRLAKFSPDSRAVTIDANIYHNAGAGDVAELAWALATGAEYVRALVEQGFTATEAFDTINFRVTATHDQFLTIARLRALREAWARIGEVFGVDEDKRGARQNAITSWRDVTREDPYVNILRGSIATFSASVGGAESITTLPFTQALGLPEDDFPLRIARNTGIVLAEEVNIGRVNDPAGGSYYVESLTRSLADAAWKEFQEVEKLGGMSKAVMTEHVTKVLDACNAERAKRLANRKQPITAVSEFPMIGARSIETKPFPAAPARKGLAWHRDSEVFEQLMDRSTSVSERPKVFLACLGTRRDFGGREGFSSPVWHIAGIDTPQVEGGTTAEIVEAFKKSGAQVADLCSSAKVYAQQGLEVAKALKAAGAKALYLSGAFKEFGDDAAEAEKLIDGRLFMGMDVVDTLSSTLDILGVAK
# Sequence of apoenzyme of methylmalonyl-CoA mutase (P11653 2-728): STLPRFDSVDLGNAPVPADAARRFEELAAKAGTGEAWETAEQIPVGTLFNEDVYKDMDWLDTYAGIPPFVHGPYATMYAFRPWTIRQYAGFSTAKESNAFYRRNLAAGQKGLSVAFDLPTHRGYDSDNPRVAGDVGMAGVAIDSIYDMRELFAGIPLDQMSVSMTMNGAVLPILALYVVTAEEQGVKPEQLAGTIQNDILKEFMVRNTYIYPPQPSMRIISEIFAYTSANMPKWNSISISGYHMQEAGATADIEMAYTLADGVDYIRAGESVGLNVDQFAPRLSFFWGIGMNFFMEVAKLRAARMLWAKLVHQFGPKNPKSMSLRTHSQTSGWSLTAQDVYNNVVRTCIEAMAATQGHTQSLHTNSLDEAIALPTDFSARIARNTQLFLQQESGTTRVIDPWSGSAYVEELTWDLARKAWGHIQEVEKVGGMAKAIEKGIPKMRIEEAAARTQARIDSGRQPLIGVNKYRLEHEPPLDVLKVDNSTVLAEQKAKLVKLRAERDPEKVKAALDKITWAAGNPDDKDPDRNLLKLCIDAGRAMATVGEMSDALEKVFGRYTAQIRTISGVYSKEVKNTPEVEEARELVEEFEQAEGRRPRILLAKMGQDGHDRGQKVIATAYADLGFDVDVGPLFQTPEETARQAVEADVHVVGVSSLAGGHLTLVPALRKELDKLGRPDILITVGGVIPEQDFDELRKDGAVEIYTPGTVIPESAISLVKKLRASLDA
# Sequence of haptocorrin (P20061 24-433): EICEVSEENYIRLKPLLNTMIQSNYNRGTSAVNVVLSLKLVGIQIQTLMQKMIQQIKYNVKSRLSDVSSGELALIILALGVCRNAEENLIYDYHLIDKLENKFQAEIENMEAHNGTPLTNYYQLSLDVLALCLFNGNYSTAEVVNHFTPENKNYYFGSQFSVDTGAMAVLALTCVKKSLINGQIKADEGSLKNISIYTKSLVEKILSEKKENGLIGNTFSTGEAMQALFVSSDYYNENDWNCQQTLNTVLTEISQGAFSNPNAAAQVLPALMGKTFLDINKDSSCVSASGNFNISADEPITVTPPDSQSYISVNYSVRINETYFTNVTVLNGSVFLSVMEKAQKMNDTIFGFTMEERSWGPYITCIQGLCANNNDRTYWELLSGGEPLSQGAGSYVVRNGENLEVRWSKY
# Sequence of methionine synthase apoenzyme (Q99707 whole entry): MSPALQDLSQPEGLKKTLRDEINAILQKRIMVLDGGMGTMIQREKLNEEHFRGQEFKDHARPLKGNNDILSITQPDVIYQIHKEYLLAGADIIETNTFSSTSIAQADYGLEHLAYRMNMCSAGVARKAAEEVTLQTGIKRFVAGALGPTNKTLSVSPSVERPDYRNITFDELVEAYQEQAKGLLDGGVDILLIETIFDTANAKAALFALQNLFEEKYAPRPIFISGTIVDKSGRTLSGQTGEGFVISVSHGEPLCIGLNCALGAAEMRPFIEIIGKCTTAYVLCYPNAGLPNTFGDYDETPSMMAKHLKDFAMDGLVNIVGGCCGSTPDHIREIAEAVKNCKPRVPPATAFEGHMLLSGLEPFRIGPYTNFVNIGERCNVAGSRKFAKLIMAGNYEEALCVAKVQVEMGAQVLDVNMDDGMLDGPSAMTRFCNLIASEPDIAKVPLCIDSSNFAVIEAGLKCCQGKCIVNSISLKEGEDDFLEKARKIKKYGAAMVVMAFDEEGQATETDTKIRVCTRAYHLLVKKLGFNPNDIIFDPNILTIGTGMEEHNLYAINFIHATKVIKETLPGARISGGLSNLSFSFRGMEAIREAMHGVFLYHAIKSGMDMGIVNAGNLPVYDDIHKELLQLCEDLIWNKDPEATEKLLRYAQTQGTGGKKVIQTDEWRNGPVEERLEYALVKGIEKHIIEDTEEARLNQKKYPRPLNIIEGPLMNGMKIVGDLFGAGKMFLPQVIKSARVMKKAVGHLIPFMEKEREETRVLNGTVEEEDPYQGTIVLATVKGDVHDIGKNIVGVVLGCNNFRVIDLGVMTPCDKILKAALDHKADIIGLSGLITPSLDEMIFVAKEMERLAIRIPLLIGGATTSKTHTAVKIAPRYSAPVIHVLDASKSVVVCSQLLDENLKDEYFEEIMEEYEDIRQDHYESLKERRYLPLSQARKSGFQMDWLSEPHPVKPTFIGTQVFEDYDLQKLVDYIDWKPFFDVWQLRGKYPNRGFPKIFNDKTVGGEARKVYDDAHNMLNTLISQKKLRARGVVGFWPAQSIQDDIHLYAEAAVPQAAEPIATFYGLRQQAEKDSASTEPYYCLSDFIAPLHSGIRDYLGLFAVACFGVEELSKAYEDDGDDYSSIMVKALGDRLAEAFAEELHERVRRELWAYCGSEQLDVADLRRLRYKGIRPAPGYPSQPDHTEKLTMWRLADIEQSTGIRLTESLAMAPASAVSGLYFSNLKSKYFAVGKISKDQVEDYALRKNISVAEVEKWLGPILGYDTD
compound,measurement,setting,value
C/C1=C2/[N-][C@H]([C@H](CC(N)=O)[C@@]2(C)CCC(=O)NC[C@@H](C)O)[C@]2(C)N=C(/C(C)=C3N=C(/C=C4N=C1[C@@H](CCC(N)=O)C\4(C)C)[C@@H](CCC(N)=O)[C@]\3(C)CC(N)=O)[C@@H](CCC(N)=O)[C@]2(C)CC(N)=O.[Co+3] [cobinamide],rate of tubular secretion,[1],"rapidly reduced tubular secretion, returning rates near to the basal state"
same,reduction of LPS-stimulated tubular secretion rates compared to control flies,[2],about 50%
same,reduction of combined nitrite and nitrate,[3],about 50%
same,8-pCPT-cGMP-induced VASP phosphorylation,[4],no effect
same,PAPA-NONOate-induced VASP phosphorylation,[4],prevented the increase in VASP phosphorylation; also recorded: prevented increases in VASP phosphorylation
same,A23187-induced VASP phosphorylation,[5],significantly attenuated this effect
same,nitrite plus nitrate concentrations in medium,[6],significant decrease in the nitrite plus nitrate concentrations
same,nitrite plus nitrate concentrations in medium,[7],significant decrease in the nitrite plus nitrate concentrations
same,methionine synthase activity in BHK cell extracts,methionine synthase [8],no effect
same,methylmalonyl-CoA mutase activity in BHK cell extracts,methylmalonyl-CoA mutase [9],no effect
same,decrease of [14C]-formate incorporation into purine nucleotides,methionine synthase [10],about 50%
same,inhibition of in vivo methionine synthase activity,methionine synthase [10],minimal inhibition
same,decrease of [14C]-propionic acid incorporation into protein,methylmalonyl-CoA mutase [11],about 50%
same,effect on oxygen consumption,[12],Neither cobinamide nor cobalamin alone had any effect on oxygen consumption
same,"recovery of respiration, of control non-KCN-treated cells",[12],about 75%
same,growth rate of KCN-treated cells,Chinese hamster cells,restored their growth rate to normal
same,HCN exposure time without any significant increase in mortality,D. melanogaster [13],up to 15 min
same,flies salvaged,D. melanogaster [13],94%
same,flies survived,D. melanogaster [13],65%
same,flies surviving / recovered by 1 h,D. melanogaster [13],approximately 90%
same,mortality rate,D. melanogaster [13],18%
same,outcome of prolonged HCN exposure,D. melanogaster [13],death of all flies
same,prevention of death,D. melanogaster [13],as effective in preventing death under these conditions as it was when administered prior to cyanide exposure
same,survival rate,D. melanogaster [14],65%
same,basal secretion rates,[15],no effect on basal secretion rates
same,resistance to KCN inhibition of tubular secretion,[15],significant resistance to the inhibitory effect of KCN; also recorded: almost complete reversal of the toxic effects of KCN
same,tubular secretion rates,[15],tubular secretion rates increased significantly
same,concentration at which toxicity began to be observed,[16],about 50 μM
same,binding to serum albumin,serum albumin,binds tightly to serum albumin
same,detrimental effect on the flies,D. melanogaster [17],no apparent detrimental effect
same,toxicity to flies,D. melanogaster [17],No toxicity
same,binding to transcobalamin II,transcobalamin II,binds poorly
same,binding to haptocorrin,haptocorrin,binds tightly
same,restoration of methionine synthase apoenzyme activity,[18],can restore the methionine synthase apoenzyme to full activity
same,not toxic to cultured mammalian cells up to,[19],at least 50 μM
same,"release from the liver, t?",[20]; iv,~150 h
same,liver retention,[20],retained more by the liver than cobalamin
same,growth inhibitory effects,mouse leukemic cells,no growth inhibitory effects
same,growth inhibitory effects,[21],no growth inhibitory effects
same,growth of baby chicks,baby chicks; po,did inhibit chick growth
same,growth of baby chicks,baby chicks,no effect on the growth of baby chicks
same,inhibition of methionine synthase or methylmalonyl-CoA mutase,rats,nor did cobinamide inhibit the two mammalian cobalamin-dependent enzymes
same,toxic effects,rats,no apparent toxic effects
same,absorption across the ileum,[22],can be absorbed across the ileum independently of intrinsic factor
"C/C1=C2/[N-][C@H]([C@H](CC(N)=O)[C@@]2(C)CCC(=O)NC[C@H](C)OP(=O)([O-])O[C@H]2[C@@H](O)[C@@H](n3cnc4cc(C)c(C)cc43)O[C@@H]2CO)[C@]2(C)N=C(/C(C)=C3N=C(/C=C4N=C1[C@@H](CCC(N)=O)C\4(C)C)[C@@H](CCC(N)=O)[C@]\3(C)CC(N)=O)[C@@H](CCC(N)=O)[C@]2(C)CC(N)=O.[Co+2] (stereo in doubt) [cobalamin, reference compound]","effect on NO scavenging by cobinamide, tubular fluid secretion",[1],no effect on NO scavenging by cobinamide
same,"effect on NO scavenging by cobinamide, VASP phosphorylation",[4],no effect on NO scavenging by cobinamide
same,prevention of cobinamide effect on [14C]-formate incorporation,methionine synthase [10],completely prevented
same,prevention of cobinamide effect on [14C]-propionic acid incorporation,methylmalonyl-CoA mutase [11],completely prevented
same,effect on oxygen consumption,[12],Neither cobinamide nor cobalamin alone had any effect on oxygen consumption
same,"recovery of respiration, of control non-KCN-treated cells",[12],42%
same,flies salvaged,D. melanogaster [13],62%
same,flies survived,D. melanogaster [13],44%
same,mortality rate,D. melanogaster [13],55%
same,survival rate,D. melanogaster [14],38%
same,basal secretion rates,[15],no effect on basal secretion rates
same,resistance to KCN inhibition of tubular secretion,[15],significant resistance to the inhibitory effect of KCN; also recorded: intermediate degree of resistance to KCN
same,toxicity to flies,D. melanogaster [17],No toxicity
same,mean peak serum concentration,[23],about 650 μM
5′-deoxyadenosyl-cobinamide,restoring function to the apoenzyme of methylmalonyl-CoA mutase,[24],inactive
